TGI and GI50 data for eight compounds are collected here from PubChem BioAssay (NCI).

Test systems include DU-145 prostate; SF-268 CNS; TK-10 renal; A498 renal; HS 578T breast; K-562 leukemia; SNB-19 CNS; CCRF-CEM leukemia; MDA-MB-231 breast; UO-31 renal.
Common to all, as to test: NCI-60 cell line screen, 48 h

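Method: 48-hour compound exposure of cells in 96-well plates, five concentrations, linear interpolation of endpoints. Here, GI50 denotes the concentration required for 50% inhibition of growth. The concentration for full growth arrest is given as TGI.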

Consider `O=C(O)C(=Cc1ccnc2ccccc12)C(=O)O`, for which the TGI in the experiment with DU-145 prostate, in the experiment with SF-268 CNS, in the experiment on TK-10 renal, in the experiment with A498 renal, in the experiment on HS 578T breast and in the experiment on K-562 leukemia was greater than 100 µM throughout. Further, the TGI with SNB-19 CNS, with CCRF-CEM leukemia and with MDA-MB-231 breast was greater than 100 µM in each case.
As for `Cc1ccc(C(CN(C)C)C(=O)c2ccccc2)cc1` (stereo not drawn), the GI50 was 1.93 µM in the experiment on DU-145 prostate; 3.13 µM in the experiment with SF-268 CNS; 13.5 µM with A498 renal; 4.7 µM in the experiment on HS 578T breast; 1.86 µM in the experiment on UO-31 renal; 1.37 µM in the experiment on K-562 leukemia. Besides, the GI50 was 10.4 µM with SNB-19 CNS, 0.442 µM in the experiment on CCRF-CEM leukemia and 2.64 µM in the experiment on MDA-MB-231 breast. For the same compound, the TGI in the experiment with DU-145 prostate was found to be 5.12 µM; with SF-268 CNS, 13 µM; in the experiment with A498 renal it was 28.6 µM; in the experiment on HS 578T breast it was 33.6 µM; in the experiment with UO-31 renal it was 3.86 µM; with K-562 leukemia, 7.82 µM. The TGI in the experiment with SNB-19 CNS turned out to be 24.3 µM; in the experiment with CCRF-CEM leukemia it was 10.6 µM; in the experiment with MDA-MB-231 breast it was 7.07 µM.
Take `CCN(CC)c1ccc(/C=C\c2cc(C)c3cc(C)ccc3n2)cc1`: the GI50 in the experiment with DU-145 prostate was 9.08 µM; in the experiment on SF-268 CNS, 6.48 µM; with TK-10 renal, 5.11 µM; with A498 renal, 2.19 µM; with HS 578T breast, 5.32 µM; with UO-31 renal, 6.97 µM. The results for the GI50 in the experiment with SNB-19 CNS and in the experiment on MDA-MB-231 breast were 51.7 µM and 16.2 µM, respectively. Further, the TGI with DU-145 prostate was greater than 100 µM; in the experiment on SF-268 CNS, greater than 100 µM; in the experiment on TK-10 renal, 36.7 µM; with A498 renal it was 8.33 µM; in the experiment on HS 578T breast, 48.4 µM; in the experiment with UO-31 renal, greater than 100 µM. Further, the TGI in the experiment with SNB-19 CNS and in the experiment on MDA-MB-231 breast was greater than 100 µM in each case.
Turning to `C1CC[N-]CC1.C1CC[N-]CC1.C1CC[N-]CC1.C1CC[N-]CC1.[Cl][Rh][Cl]`, the GI50 was 6.3 µM in the experiment with DU-145 prostate; 5.21 µM with SF-268 CNS; 23.6 µM with TK-10 renal; 15.6 µM with A498 renal; 3.95 µM in the experiment with HS 578T breast; 34.4 µM in the experiment on UO-31 renal. The GI50 in the experiment on SNB-19 CNS is 4.75 µM; with CCRF-CEM leukemia, 3.46 µM; in the experiment with MDA-MB-231 breast, 21.5 µM. In addition, the TGI in the experiment with DU-145 prostate was 53.8 µM; in the experiment on SF-268 CNS, 27.9 µM; in the experiment with TK-10 renal it was greater than 100 µM; in the experiment with A498 renal, 55.2 µM; in the experiment with HS 578T breast, 54.8 µM; with UO-31 renal, greater than 100 µM. Also, the figures for the TGI in the experiment with SNB-19 CNS, in the experiment with CCRF-CEM leukemia and in the experiment with MDA-MB-231 breast were greater than 100 µM, 72.4 µM and greater than 100 µM, respectively.
`O=Cc1c(-c2cc(O)ccc2O)nc2sccn12`: the GI50 was 22.6 µM with DU-145 prostate; 3.83 µM in the experiment with SF-268 CNS; 11 µM in the experiment on TK-10 renal; 29.5 µM in the experiment with A498 renal; 35.7 µM in the experiment on HS 578T breast; 1.05 µM with UO-31 renal. For the same compound, the GI50 with SNB-19 CNS is 42.6 µM; in the experiment with CCRF-CEM leukemia, 0.95 µM; in the experiment on MDA-MB-231 breast, 12 µM. Moreover, the TGI with DU-145 prostate is 49.2 µM; in the experiment with SF-268 CNS, 38.3 µM; in the experiment on TK-10 renal, 23.6 µM; with A498 renal it was 78.9 µM; in the experiment with HS 578T breast it was greater than 100 µM; in the experiment with UO-31 renal, 2.38 µM. The TGI was greater than 100 µM in the experiment on SNB-19 CNS, 7.21 µM in the experiment on CCRF-CEM leukemia and 31.4 µM in the experiment with MDA-MB-231 breast.
Regarding `O=c1c2ccccc2c2ccccc2c(=O)n1-c1cc2c3ccccc3ccc2c2ccccc12`, the TGI in the experiment with DU-145 prostate, in the experiment with SF-268 CNS, in the experiment with TK-10 renal, with A498 renal, with HS 578T breast and with UO-31 renal was greater than 100 µM in each case. The TGI in the experiment on SNB-19 CNS and with MDA-MB-231 breast was greater than 100 µM in each case.
On to `COCCn1cc(-c2csc(-c3c[nH]c4ccccc34)n2)c2cccnc21`, for which the GI50 is 15.4 µM in the experiment on DU-145 prostate; 6.98 µM in the experiment on SF-268 CNS; 3.03 µM in the experiment with A498 renal; 9.14 µM with HS 578T breast; 4.15 µM with UO-31 renal; 2.8 µM in the experiment with K-562 leukemia. The results for the GI50 in the experiment on SNB-19 CNS, in the experiment with CCRF-CEM leukemia and in the experiment on MDA-MB-231 breast were 16.2 µM, greater than 100 µM and 5.05 µM, respectively. Further, the TGI in the experiment with DU-145 prostate was greater than 100 µM; in the experiment on SF-268 CNS, greater than 100 µM; in the experiment with A498 renal it was 9.56 µM; in the experiment with HS 578T breast it was greater than 100 µM; with UO-31 renal, greater than 100 µM; with K-562 leukemia, greater than 100 µM. Further, the TGI with SNB-19 CNS, in the experiment with CCRF-CEM leukemia and in the experiment with MDA-MB-231 breast was greater than 100 µM throughout.
As to `CCN(Cc1cccc(OC)c1)c1ccc(CO)c(Cl)c1`, the GI50 with DU-145 prostate is 21.1 µM; in the experiment with SF-268 CNS, 22.5 µM; in the experiment on A498 renal, 0.0598 µM; in the experiment with HS 578T breast, 18.3 µM; in the experiment with UO-31 renal it was 8.4 µM; with K-562 leukemia it was 1.92 µM. Further, the GI50 with SNB-19 CNS was 24 µM; in the experiment on CCRF-CEM leukemia it was 24.8 µM; with MDA-MB-231 breast, 14.9 µM. Moreover, the TGI was 67.5 µM in the experiment on DU-145 prostate; 71.6 µM in the experiment on SF-268 CNS; 0.191 µM in the experiment on A498 renal; 61.9 µM in the experiment on HS 578T breast; 45.1 µM with UO-31 renal; greater than 86.5 µM in the experiment on K-562 leukemia. The TGI in the experiment with SNB-19 CNS was greater than 100 µM; in the experiment on CCRF-CEM leukemia, greater than 82.6 µM; with MDA-MB-231 breast, 44 µM.
